Measured values as given in patent publication US10882856B2 (BeiGene, Ltd., priority 2017, dated 2021).

Key:
[1] = molecular target: T1, cellular TDO2 in HEK293-TDO2 cells (Homo sapiens, UniProt P48775); experiment: 293-TDO2 cell-based assay (Kyn colorimetric); conditions: 48 hours of incubation
T1 construct: expressed in transfected cells; host or cells: HEK293 (ATCC), stably transfected
Description: The inhibitory activity of TDO2 inhibitors is determined by using a colorimetric reaction to measure Kyn generated from L-Trp (L-Tryptophon) oxidation by cellular TDO2 in HEK293-TDO2 cells stably transfected with a plasmid expression of Tryptophan 2,3-dioxygenase (for short, 293-TDO2).
HEK293 cells were obtained from the American Type Culture Collection and 293-TDO2 were recovered in 10% FBS-containing phenol red-free DMEM medium. Cells were plated onto a 96-well plate (100 μl/well) at 10000 cells per well and kept at 37° C. in a humidified incubator supplied with 5% CO2. 4 hours later, Compounds at different concentrations diluted in dimethylsulfoxide (DMSO) were added to plate. Cells were kept at 37° C. in a humidified incubator supplied with 5% CO2. After 48 hours of incubation, 100 μl supernatant from each well was removed to a new plate. The protein in the medium was precipitated with the addition of 8 μl 6N trichloroacetic acid. The plate was incubated at 60° C. for 30 minutes and then centrifugation at 2500 rpm for 10 minutes to remove sediments. 80 μl supernatants were carefully removed to a new clean plate and added with an equal volume of 2% 4-(Dimethylamino) benzaldehyde (D2004, sigma) dissolved in glacial acetic acid. The absorbance at 480 nm wavelength derived from Kyn was measured using a PHERAstar FS plate reader (BMG LABTECH). The IC50 for each compound was derived from fitting the dose-response data to the four-parameter logistic model by using XLfit software (IDBS).

[2] = molecular target: T2, IDO1 (Homo sapiens, UniProt P14902); experiment: IDO1 enzymatic assay; assay type: biochemical; set-up: His tag (N); made in house; host or cells: E. coli; conditions: read-out: Enzyme IC50 IDO1
T2 sequence (P14902 whole entry): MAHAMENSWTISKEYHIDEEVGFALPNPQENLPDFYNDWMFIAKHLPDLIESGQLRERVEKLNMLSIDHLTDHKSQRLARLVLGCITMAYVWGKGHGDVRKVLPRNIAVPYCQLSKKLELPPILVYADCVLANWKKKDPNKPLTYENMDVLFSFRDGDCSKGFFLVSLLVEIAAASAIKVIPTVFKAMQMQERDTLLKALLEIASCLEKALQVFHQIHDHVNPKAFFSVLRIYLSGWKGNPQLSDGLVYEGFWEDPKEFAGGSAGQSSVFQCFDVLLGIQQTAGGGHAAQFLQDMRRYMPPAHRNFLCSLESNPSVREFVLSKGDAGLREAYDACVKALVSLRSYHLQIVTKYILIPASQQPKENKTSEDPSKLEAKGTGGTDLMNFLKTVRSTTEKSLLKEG
Outline: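 IC50 values reflect remaining IDO1 activity over increasing compound concentrations. The enzyme (50 nM, N-terminally His-tagged, purified from E. coli) was incubated for 1.5 hours at 24 °C with compound, 1.3 mM D-tryptophan, 5 mM L-ascorbic acid, methylene blue and 0.4 mg/mL catalase in 50 mM potassium phosphate pH 7.5 with 0.1% BSA. The slope of N'-formylkynurenine formation, read continuously at 321 nm for 1 hour, served as activity.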

[3] = molecular target: T2, IDO1; experiment: Hela cell-based IDO1 assay; conditions: Hela cells
Outline: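 HeLa cells were plated at 8000 per well in 96-well plates containing phenol red-free DMEM with 10% FBS, and after 4 hours compound dilutions made in DMSO were added together with IFN-γ (final 100 ng/mL) and 0.4 mM L-Trp before 48 hours at 37 °C, 5% CO2. Supernatants were deproteinised with trichloroacetic acid, mixed with 2% 4-(dimethylamino)benzaldehyde and read at 480 nm for kynurenine. Four-parameter logistic fits were run in XLfit. Potency was derived from these fits.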

T1 sequence (P48775 whole entry): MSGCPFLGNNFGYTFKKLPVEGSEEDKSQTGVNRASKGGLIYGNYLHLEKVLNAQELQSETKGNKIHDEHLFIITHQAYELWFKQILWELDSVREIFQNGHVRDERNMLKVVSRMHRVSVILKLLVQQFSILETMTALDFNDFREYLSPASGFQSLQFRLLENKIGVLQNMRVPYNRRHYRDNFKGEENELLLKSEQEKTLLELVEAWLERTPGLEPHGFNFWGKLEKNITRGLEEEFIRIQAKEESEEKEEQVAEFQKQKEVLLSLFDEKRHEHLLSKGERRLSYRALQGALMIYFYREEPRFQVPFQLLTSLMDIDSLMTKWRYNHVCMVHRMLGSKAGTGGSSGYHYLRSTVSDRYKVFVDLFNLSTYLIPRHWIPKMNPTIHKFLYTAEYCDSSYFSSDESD

| Structure (SMILES) | EC50 [1] | IC50 [2] | EC50 [3] |
| --- | --- | --- | --- |
| O[C@@H](c1c(C2CC2)ccc2cncn12)C1CCC(c2csc3ccccc23)CC1 (single isomer, unassigned) [Example D155b] | > 10 µM | 9000 nM | 5630 nM |
| COc1ccc(C2CCC(C(O)c3c(C4CC4)ccc4cncn34)CC2)cc1Cl (stereo not drawn) [Example D148, (4-(3-chloro-4-methoxyphenyl)cyclohexyl)(6-cyclopropylimidazo[1,5-a]pyridin-5-yl)methanol] | > 10 µM | 40 nM | 188 nM |
| OC(c1c(C2CC2)ccc2cncn12)C1CCC(c2ccc(Cl)cc2F)CC1 (stereo not drawn) [Example D131, (4-(4-chloro-2-fluorophenyl)cyclohexyl)(6-cyclopropylimidazo[1,5-a]pyridin-5-yl)methanol] | > 10 µM | 47 nM | 578 nM |
| OC(c1c(C2CC2)ccc2cncn12)C1CCC(c2cccc(F)c2F)CC1 (stereo not drawn) [Example D132, (6-cyclopropylimidazo[1,5-a]pyridin-5-yl)(4-(2,3-difluorophenyl)cyclohexyl)methanol] | > 10 µM | 55 nM | 378 nM |
| N#Cc1ccc(N2CCC(C(O)c3c(C4CC4)ccn4cncc34)CC2)cc1 (single isomer, unassigned) [Example C144a] | > 10 µM | 19 nM | 476 nM |
| OC(c1c(C2CC2)ccn2cncc12)C1CCC(c2ccc(OC3CCOCC3)cc2)CC1 (stereo not drawn) [Example C119, (7-cyclopropylimidazo[1,5-a]pyridin-8-yl)(4-(4-((tetrahydro-2H-pyran-4-yl)oxy)phenyl)cyclohexyl)methanol] | > 10 µM | 39 nM | 148 nM |
| OC(c1c(C2CC2)ccc2cncn12)[C@H]1CC[C@H](c2ccc(F)cc2Cl)CC1 (single isomer, unassigned) [Example D130a] | > 10 µM | 30 nM | 203 nM |
| O[C@@H](c1c(C2CC2)ccc2cncn12)[C@H]1CC[C@H](c2ccc(Br)cc2)CC1 (single isomer, unassigned) [Example D118b] | > 10 µM | > 10000 nM | 8410 nM |
| OC(c1c(C2CC2)ccn2cncc12)C1CCC(c2ccnc3ccccc23)CC1 (stereo not drawn) [Example C130, (7-cyclopropylimidazo[1,5-a]pyridin-8-yl)(4-(quinolin-4-yl)cyclohexyl)methanol] | > 10 µM | 36 nM | 93 nM |
| OC(c1c(C2CC2)ccc2cncn12)C1CCN(c2cccc(Cl)c2)CC1 (stereo not drawn) [Example D173, (1-(3-chlorophenyl)piperidin-4-yl)(6-cyclopropylimidazo[15-a]pyridin-5-yl)methanol] | > 10 µM | 30 nM | 65 nM |
| COc1ccc([C@H]2CC[C@H]([C@@H](O)c3c(C4CC4)ccn4cncc34)CC2)cc1 [Example C101b, (R)-(7-cyclopropylimidazo[1,5-a]pyridin-8-yl)(4-(4-methoxyphenyl)cyclohexyl)methanol] | > 10 µM | 9400 nM | > 10000 nM |
| OC(c1c(C2CC2)ccc2cncn12)C1CCC(c2ccccc2Cl)CC1 (stereo not drawn) [Example D117] | > 10 µM | 48 nM | 275 nM |
| OC(c1c(C2CC2)ccn2cncc12)C1CCN(c2ccc(F)cc2)CC1 (single isomer, unassigned) [Example C137a] | > 10 µM | 26 nM | 74 nM |
| O[C@H](c1c(C2CC2)ccc2cncn12)[C@H]1CC[C@H](c2ccc3ncccc3c2)CC1 (single isomer, unassigned) [Example D157a] | > 10 µM | 15 nM | 52 nM |
| O[C@H](c1c(C2CC2)ccc2cncn12)C1CCN(c2cccc(Cl)c2)CC1 (single isomer, unassigned) [Example D173a] | > 10 µM | 18 nM | 33 nM |
| O[C@H](c1c(C2CC2)ccc2cncn12)[C@H]1CC[C@H](c2ccc(F)cc2F)CC1 (single isomer, unassigned) [Example D127a] | > 10 µM | 16 nM | 83 nM |

Further lines, results first:

| EC50 [1] | IC50 [2] | EC50 [3] | Structure (SMILES) |
| --- | --- | --- | --- |
| > 10 µM | 27 nM | 100 nM | OC(c1c(C2CC2)ccc2cncn12)C1CCC(c2ccccc2)CC1 (stereo not drawn) [Example D101, (6-cyclopropylimidazo[1,5-a]pyridin-5-yl)(4-phenylcyclohexyl)methanol] |
| > 10 µM | > 10000 nM | 4470 nM | COc1ccc([C@H]2CC[C@H](C(O)c3c(C4CC4)ccc4cncn34)CC2)c2ccccc12 (single isomer, unassigned) [Example D139b] |
| > 10 µM | 16 nM | 20 nM | O[C@H](c1c(C2CC2)ccn2cncc12)[C@H]1CC[C@H](c2cccc3ncccc32)CC1 (single isomer, unassigned) [Example C126a] |
| > 10 µM | 23 nM | 74 nM | COc1ccc(C2CCC(C(O)c3c(C4CC4)ccc4cncn34)CC2)cc1 (stereo not drawn) [Example D102, (6-cyclopropylimidazo[1,5-a]pyridin-5-yl)(4-(4-methoxyphenyl)cyclohexyl)methanol] |
| > 10 µM | 36 nM | 82 nM | Oc1ccc(C2CCC(C(O)c3c(C4CC4)ccn4cncc34)CC2)cc1 (racemic) [Example C104] |
| > 10 µM | 62 nM | 583 nM | Oc1ccc(C2CCC(C(O)c3c(C4CC4)ccc4cncn34)CC2)c2ccccc12 (stereo not drawn) [Example D138, (6-cyclopropylimidazo[1,5-a]pyridin-5-yl)(4-(4-hydroxynaphthalen-1-yl)cyclohexyl)methanol] |
| > 10 µM | 56 nM | 236 nM | NC(=O)c1ccc([C@H]2CC[C@H]([C@H](O)c3c(C4CC4)ccn4cncc34)CC2)cc1 [Example C124] |
| > 10 µM | 2800 nM | > 10000 nM | O[C@@H](c1cc(Cl)cc2cncn12)[C@H]1CC[C@H](c2ccc(Cl)cc2)CC1 (single isomer, unassigned) [Example E101b] |
| > 10 µM | 41 nM | 260 nM | OC(c1c(C2CC2)ccc2cncn12)C1CCC(c2ccc(Cl)c(F)c2)CC1 (stereo not drawn) [Example D128, (4-(4-chloro-3-fluorophenyl)cyclohexyl)(6-cyclopropylimidazo[1,5-a]pyridin-5-yl)methanol] |
| > 10 µM | 41 nM | 29 nM | CC(C)c1ccc2cncn2c1C(O)C1CCC(c2ccc(F)cc2)CC1 (stereo not drawn) [Example D166, (4-(4-fluorophenyl)cyclohexyl)(6-isopropylimidazo[1,5-a]pyridin-5-yl)methanol] |
| > 10 µM | 62 nM | 98 nM | OC(c1c(C2CC2)ccc2cncn12)C1CCC(c2ccc(F)c3ccccc23)CC1 (stereo not drawn) [Example D137, (6-cyclopropylimidazo[1,5-a]pyridin-5-yl)(4-(4-fluoronaphthalen-1-yl)cyclohexyl)methanol] |
| > 10 µM | 24 nM | 42 nM | OC(c1c(C2CC2)ccc2cncn12)C1CCC(c2ccnc3ccccc23)CC1 (stereo not drawn) [Example D140, (6-cyclopropylimidazo[1,5-a]pyridin-5-yl)(4-(quinolin-4-yl)cyclohexyl)methanol] |
| > 10 µM | 41 nM | 200 nM | COc1ccc(C2CCC(C(O)c3c(C4CC4)ccn4cncc34)CC2)cc1 (racemic) [Example C101, (7-cyclopropylimidazo[1,5-a]pyridin-8-yl)(4-(4-methoxyphenyl)cyclohexyl)methanol] |
| > 10 µM | 2700 nM | 5400 nM | O[C@@H](c1c(C2CC2)ccc2cncn12)C1CCN(c2cccc(F)c2)CC1 [Example D172b] |
| > 10 µM | 65 nM | 157 nM | OC(c1c(C2CC2)ccn2cncc12)C1CCC(c2ccc(F)cc2)CC1 (racemic) [Example C107, (7-cyclopropylimidazo[1,5-a]pyridin-8-yl)(4-(4-fluorophenyl)cyclohexyl)methanol] |
| > 10 µM | 8200 nM | > 10000 nM | COc1ccccc1[C@H]1CC[C@H]([C@@H](O)c2c(C3CC3)ccn3cncc23)CC1 (single isomer, unassigned) [Example C113b] |
